Experimental data taken from patent US12472225B2 (priority 2019, dated 2025).
Where a SMILES comes first, the peptide text is derived from it. Bridges are numbered along the chain shown (N, C = ends). [ ]: non-standard residue; d: D form. The star is where a group is joined. Octanoyl = CCCCCCCC(=O)*; Dab = NCC[C@H](N)C(=O)O; Abu = CC[C@H](N)C(=O)O

Tests used:
[1] = molecular target: T1, binding of Shiga toxin 2 to human neutrophils expressing the TLR4 (Escherichia phage 933W, UniProt P09385); test: cell-based; assay type: cell-based
Shiga toxin 2 = Shiga toxin 2 (Escherichia phage 933W, UniProt P09385); test: biochemical; assay type: binding
[2] = system: Raji cells (Burkitt lymphoma); assay type: cell-based, human
[3] = system: neutrophil/platelet aggregates in human blood; assay type: cell-based
[4] = system: monocyte/platelet aggregates in human blood; assay type: cell-based
[5] = molecular target: T1, binding of Shiga toxin 2 to human neutrophils expressing the TLR4; details: cited from earlier work
[6] = system: Raji cells (Burkitt lymphoma); details: cited from earlier work
human renal tubule cells = details: cited from earlier work

T1 sequence (P09385 whole entry, looked up): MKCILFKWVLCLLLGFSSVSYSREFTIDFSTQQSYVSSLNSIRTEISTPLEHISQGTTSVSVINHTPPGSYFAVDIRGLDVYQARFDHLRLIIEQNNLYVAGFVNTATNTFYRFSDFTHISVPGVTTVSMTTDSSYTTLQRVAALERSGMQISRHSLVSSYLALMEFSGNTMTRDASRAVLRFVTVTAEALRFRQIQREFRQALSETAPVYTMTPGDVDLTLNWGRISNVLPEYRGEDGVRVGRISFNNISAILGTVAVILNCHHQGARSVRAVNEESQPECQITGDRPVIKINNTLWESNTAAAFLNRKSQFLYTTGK
Sequence of Shiga toxin 2 (P09385 whole entry, looked up): as above

CCCCCCCC(=O)N[C@@H](CCN)C(=O)N[C@H](C(=O)N[C@@H](C(=O)N[C@H]1CCNC(=O)[C@H]([C@@H](C)O)NC(=O)[C@H](CCN)NC(=O)[C@H](CC)NC(=O)[C@H](CC(C)C)NC(=O)[C@@H](Cc2ccccc2)NC(=O)[C@H](CCN)NC1=O)[C@H](C)O)[C@@H](C)O [NAB815, OA-Dab-Thr-DThr-cy[Dab-Dab-DPhe-Leu-Abu-Dab-Thr-]] (Octanoyl-[Dab]T[dT][Dab][Dab][dF]L[Abu][Dab]T; lactam 4-C)
inhibition of the binding of Shiga toxin 2 to the neutrophil (in words) [1]: strong inhibitor | IC50 ([1]; IC50 (concentration determining a 50% inhibition) of binding of Shiga toxin 2 to neutrophils): 48.5 nM | IC50 ([1]; concentration inhibiting binding of Shiga toxin 2 to neutrophils by 50%): 43 nM | Kd (Shiga toxin 2): 5 nM | maximum reduction of the fluorescence emission (Shiga toxin 2): approximately 10% | protection of Raji cells from Shiga toxin 2 intoxication (protein synthesis) [2]: no protective effect | inhibition of formation of neutrophil/platelet aggregates [3]: more than 70% | inhibition of formation of monocyte/platelet aggregates [4]: more than 70%

OA-Thr-Abu-cy[Dab-Dab-DPhe-Leu-Dab-Dab-Thr-] [NAB7061, reference compound]
inhibition of the binding of Shiga toxin 2 to the neutrophil (in words) [1]: scarcely effective

MOA/MHA-Dab-Thr-Dab-cy[Dab-Dab-DPhe-Leu-Dab-Dab-Thr-] [polymyxin B]
effect on formation of neutrophil/platelet aggregates (in words) [3]: not effective | effect on formation of monocyte/platelet aggregates (in words) [4]: not effective | IC50 of binding of Shiga toxin 2 to neutrophils [5]: 3.5 µg/mL | protection of Raji cells from Shiga toxin 2 intoxication [6]: no protective effect | cytotoxicity IC50 (human renal tubule cells): 18 µg/mL

Ac-Thr-DSer-cy[Dab-Dab-DPhe-Leu-Dab-Dab-Thr-] [NAB741, reference compound]
inhibition of the binding of Shiga toxin 2 to the neutrophil (in words) [1]: scarcely effective
